# Measured values from patent publication US20140113888A1, “Novel Combination of Therapeutic Agents” (Glaxo Group Limited, priority 2011, published 2014).
# Key:
# [1] = 8 week randomised, double-blind, placebo-controlled study in persistent uncontrolled asthma; assay type: in vivo, human
# Procedure: In one such study, the safety and efficacy of four doses of fluticasone furoate in subjects with persistent uncontrolled asthma were evaluated. In this study, which was a randomised, double-blind, placebo-controlled, parallel group study, 598 patients received one of six treatments: fluticasone furoate (25, 50, 100 or 200 mcg) once daily, fluticasone propionate 100 mcg twice daily or placebo for 8 weeks. The primary endpoint was change from baseline in trough (pre-dose) forced expiratory volume in 1 second (FEV1) at Week 8. […] This study supports the use of fluticasone furoate (100 or 200 mcg once-daily) for the treatment of persistant uncontrolled asthma.
# [2] = clinical studies of fluticasone furoate (general statement); assay type: in vivo, human
# muscarinic receptor = test: studies in animal models and in humans: muscarinic receptor antagonism
# [3] = 28 day once-daily dry powder inhaler study in subjects with COPD; assay type: in vivo, human; conditions: 125, 250 and 500 mcg once-daily, 28 days
# Source text: A further study evaluated the efficacy and safety of three doses (125 mcg, 250 mcg and 500 mcg) of umeclidinium bromide administered once-daily via a dry powder inhaler over a 28 day period in subjects with COPD.
# [4] = 14-day once-daily study in subjects with COPD; assay type: in vivo, human; conditions: 14 days
# Source text: In addition, this study confirmed that umeclidinium bromide has a once-daily profile.
# [5] = duration of action in vivo, administered directly to the lungs in pre-clinical models
# human M3 receptor = human M3 receptor (Homo sapiens, UniProt P20309); test: reversibility at the human M3 receptor in vitro; assay type: binding
# [6] = clinical pharmacology studies, single inhaled doses, plethysmography (sGaw, Raw) and spirometry (FEV1); assay type: in vivo, human; conditions: healthy volunteers and COPD patients
# Procedure: Several clinical pharmacology studies have been conducted using umeclidinium bromide in both healthy volunteers and COPD patients to investigate the safety, tolerability, pharmacokinetics and pharmacodynamics of this compound. The bronchodilatory effects and duration of action of single inhaled doses of this compound as measured by plethysmography (sGaw, Raw) and spirometry (FEV1) were assessed in some of the above noted studies.
# Sequence of human M3 receptor (P20309 whole entry): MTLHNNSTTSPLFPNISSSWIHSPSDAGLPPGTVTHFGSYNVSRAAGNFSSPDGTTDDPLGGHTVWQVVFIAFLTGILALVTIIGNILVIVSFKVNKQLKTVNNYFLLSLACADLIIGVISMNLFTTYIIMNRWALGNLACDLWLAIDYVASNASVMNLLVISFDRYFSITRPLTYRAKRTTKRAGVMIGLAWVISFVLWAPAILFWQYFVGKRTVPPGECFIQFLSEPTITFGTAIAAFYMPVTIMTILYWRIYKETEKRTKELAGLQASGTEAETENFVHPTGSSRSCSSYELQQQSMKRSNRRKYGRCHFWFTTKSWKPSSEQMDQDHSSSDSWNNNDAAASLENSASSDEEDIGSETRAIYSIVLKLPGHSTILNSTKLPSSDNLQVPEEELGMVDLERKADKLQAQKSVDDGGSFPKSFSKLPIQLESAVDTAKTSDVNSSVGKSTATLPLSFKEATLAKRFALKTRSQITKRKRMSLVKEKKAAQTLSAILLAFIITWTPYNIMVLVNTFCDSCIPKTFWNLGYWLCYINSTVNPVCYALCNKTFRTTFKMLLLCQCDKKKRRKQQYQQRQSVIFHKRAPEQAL
SMILES,"change from baseline in trough FEV1 at Week 8 relative to placebo ([1]; 50-200 mcg once daily, p<0.05)",increase in trough FEV1 at Week 8 ([1]; 100 mcg once daily) [mL],increase in trough FEV1 at Week 8 ([1]; 200 mcg once daily) [mL],tolerability ([2]; clinical studies),activity after dosing ([2]; inhaled),muscarinic receptor antagonist profile (muscarinic receptor),bronchodilation [3],safety [3],"pulmonary function compared to placebo ([4]; 62.5, 125, 250, 500 and 1000 mcg once-daily)",trough FEV1 versus open label tiotropium active control (18 mcg once-daily) ([4]; all once-daily doses 62.5-1000 mcg),duration of action in vivo [5],reversibility at the human M3 receptor (human M3 receptor),"bronchodilatory effects (sGaw, Raw, FEV1) [6]",duration of action [6] [h]
"C[C@@H]1C[C@H]2[C@@H]3C[C@H](F)C4=CC(=O)C=C[C@]4(C)[C@@]3(F)[C@@H](O)C[C@]2(C)[C@@]1(OC(=O)c1ccco1)C(=O)SCF [fluticasone furoate, 6α,9α-difluoro-17α-[(2-furanylcarbonyl)oxy]-11β-hydroxy-16α-methyl-3-oxo-androsta-1,4-diene-17β-carbothioic acid S-fluoromethyl ester]",significantly greater increases,> 200,> 200,well-tolerated,still active 24 hours after dosing,,,,,,,,,
"OC(c1ccccc1)(c1ccccc1)C12CC[N+](CCOCc3ccccc3)(CC1)CC2.[Br-] [umeclidinium bromide, 4-[hydroxy(diphenyl)methyl]-1-{2-[(phenylmethyl)oxy]ethyl}-1-azoniabicyclo[2.2.2]octane bromide]",,,,,,long acting high-affinity pan-active muscarinic receptor antagonist,significant bronchodilation over twenty four hours,safe,statistically significant improvements,numerically greater improvement,long duration of action,slow reversibility,clinically relevant bronchodilation,24
